We go through four compounds from ChEMBL document CHEMBL1148631, “Synthesis of cyclopentenyl carbocyclic nucleosides as potential antiviral agents against orthopoxviruses and SARS” (J Med Chem, 2006).

In test [1] the test system is SARS-CoV. The test is described as follows: Selective index against SARS coronavirus. Format: functional, Severe acute respiratory syndrome-related coronavirus.
The subject of test [2] is Venezuelan equine encephalitis virus. The test is described as follows: Antiviral activity against Venezuelan equine encephalitis virus. Format: functional, organism-based.
Test [3] deals with SARS-CoV. The test is described as follows: Antiviral activity against SARS coronavirus. Format: functional, organism-based. The settings on record: Severe acute respiratory syndrome-related coronavirus.
Test [4] can be described thus: Cytotoxicity against Vaccinia virus. The settings on record: Orthopoxvirus vaccinia. It is filed as organism-based.
A short description of test [5]: Cytotoxicity against Cowpox virus. Format: organism-based.
Test [6] deals with Venezuelan equine encephalitis virus. In words: Selective index against Venezuelan equine encephalitis virus. Format: functional.
Test [7] has as its system SARS-CoV. The test is described as follows: Cytotoxicity against SARS coronavirus. It is filed as organism-based. Conditions: Severe acute respiratory syndrome-related coronavirus.
Test [8] concerns Vaccinia virus. In words: Selective index against Vaccinia virus. Format: functional, Orthopoxvirus vaccinia.
In test [9] the test system is Venezuelan equine encephalitis virus. In words: Cytotoxicity against Venezuelan equine encephalitis virus. It is filed as organism-based.
Test [10] relates to Yellow fever virus. The test is described as follows: Antiviral activity against Yellow fever virus. Format: functional, organism-based.
Test [11] deals with Yellow fever virus. The test is described as follows: Cytotoxicity against Yellow fever virus. Format: organism-based.
In test [12] the test system is Cowpox virus. In words: Antiviral activity against Cowpox virus. It is filed as functional, organism-based.
Test [13] has as its system Vaccinia virus. The test is described as follows: Antiviral activity against Vaccinia virus. Format: functional, organism-based. Conditions: Orthopoxvirus vaccinia.
Test [14] relates to West Nile virus. The test is described as follows: Cytotoxicity against West Nile virus. Format: organism-based.
Test [15] concerns Yellow fever virus. In words: Selective index against Yellow fever virus. Format: functional.
The subject of test [16] is Cowpox virus. In words: Selective index against Cowpox virus. It is filed as functional.
Test [17] relates to West Nile virus. In words: Antiviral activity against West Nile virus. Format: functional, organism-based.

On to `NC(=O)c1cn([C@@H]2C=C(CO)[C@@H](O)[C@H]2O)nn1`, for which the Selectivity index is recorded as above 2.1 in test [1]; 0 in test [6]; above 750 in test [8]; 0 in [15]; above 7.7 in [16]. In addition, the half-maximal effective concentration (EC50) is above 100 µM in [2]; 47 µM in test [3]; above 100 µM in test [10]; 39 µM in [12]; 0.4 µM in [13]; above 100 µM in [17]. The IC50 is above 300 µM in test [4]; above 300 µM in [5]; above 100 µM in [7]; above 100 µM in test [9]; above 100 µM in test [11]; above 100 µM in test [14].
Take `NC(=O)c1ncn([C@@H]2C=C(CO)[C@@H](O)[C@H]2O)n1`: the Selectivity index in test [1] is reported as above 4.8; in [6], 0; in [8], 0; in test [15], 0; in [16], 0. The EC50 in test [2] was above 100 µM; in test [3], 21 µM; in test [10] it was above 100 µM; in test [12], above 300 µM; in [13], above 300 µM; in test [17], above 100 µM. Also, the half-maximal inhibitory concentration (IC50) in test [4] is above 300 µM; in test [5], above 300 µM; in [7], above 100 µM; in test [9] it was above 100 µM; in test [11], above 100 µM; in [14], above 100 µM.
For `NC(=O)c1cn([C@@H]2C=C(CO)[C@@H](O)[C@H]2O)cn1`, the Selectivity index in test [1], in [6], in test [8], in [15] and in test [16] was 0 throughout. Besides, the 50% effective concentration (EC50) in test [2] was above 100 µM; in test [3] it was above 100 µM; in [10] it was above 100 µM; in test [12] it was above 300 µM; in [13] it was above 300 µM; in test [17], above 100 µM. For the same compound, the IC50 is above 300 µM in [4]; above 300 µM in test [5]; above 100 µM in [7]; above 100 µM in [9]; above 100 µM in [11]; above 100 µM in test [14].
As for `Nc1ccn(C[C@@H](CO)OCP(=O)(O)O)c(=O)n1` [CIDOFOVIR], the 50% inhibitory concentration (IC50) in [4] was below 317 µM; in [5] it was above 317 µM. Also, the response in test [13] was half-maximal at 6 µM (EC50).
